Literature values, collected in US4994542A, “Surgical adhesive” (Asahi Glass Co., Ltd., priority 1988, dated 1991).

Assays:
[1] = hydrolysis products of TDI and MDI
[2] = aromatic polyisocyanates, general statement

| Substance | activity in a microbial mutagenicity test (Ames test) [1] | mutagenic activity [2] |
| --- | --- | --- |
| diaminodiphenylmethane | high activity | – |
| diphenylmethane diisocyanates [MDI] | – | high mutagenic activity |
| tolylene diamine | high activity | – |
| tolylene diisocyanates [TDI] | – | high mutagenic activity |
